Measured values as given in patent US20230124862A1, “BISMUTH THIOL COMPOUNDS AND COMPOSITIONS AND METHODS OF TREATING MICROBIAL CO-INFECTIONS” (Microbion Corporation, priority 2020, published 2023).

Experiments:
[1] = system: Candida spp.; assay: Broth microdilution MIC (Example 11); assay type: cell-based, C. parapsilosis, C. albicans, C. glabrata, C. tropicalis
[2] = system: B. cepcacia complex (not further speciated); assay: microbe, parasite or virus in culture; assay type: cell-based, Burkholderia cepacia complex; details: Burkholderia cepacia
[3] = system: M. avium; assay: MIC testing of CF isolates; assay type: cell-based; details: Mycobacterium avium
[4] = system: Achromobacter spp. biofilm; assay: Activity against biofilms; assay type: cell-based; details: tested up to 250 μg/mL
Text: A dose response is also apparently associated with both compounds (FIG. 21).

CC(S)C(C)S.[Bi] (centres unmarked) [BisBDT, bismuth-2,3-butanedithiol]
MIC ([1]; 24 h, C. albicans MMX 7039, Sensitive, incubation 24 hr): 2 µg/mL
MIC ([1]; 24 h, C. albicans MMX 7055, Sensitive, incubation 24 hr): 2 µg/mL
MIC ([1]; 24 h, C. glabrata MMX 7318, FLU^R, incubation 24 hr): 0.25 µg/mL
MIC ([1]; 24 h, C. glabrata miX 7086, FLU^R, incubation 24 hr): 0.5 µg/mL
MIC ([1]; 24 h, C. parapsilosis MMX 2323 (ATCC 22019), QC, incubation 24 hr): 0.5 µg/mL
MIC ([1]; 24 h, C. tropicalis MMX 7247, FLU^R, incubation 24 hr): 4 µg/mL
MIC ([1]; 24 h, C. tropicalis MMX 7248, FLU^R, incubation 24 hr): 4 µg/mL
MIC ([1]; 24 h, C. tropicalis MMX 7360, FLU^R, incubation 24 hr): 2 µg/mL
MIC ([1]; 48 h, C. albicans MMX 7039, Sensitive, incubation 48 hr): 2 µg/mL
MIC ([1]; 48 h, C. albicans MMX 7055, Sensitive, incubation 48 hr): 2 µg/mL
MIC ([1]; 48 h, C. glabrata MMX 7318, FLU^R, incubation 48 hr): 0.5 µg/mL
MIC ([1]; 48 h, C. glabrata miX 7086, FLU^R, incubation 48 hr): 1 µg/mL
MIC ([1]; 48 h, C. parapsilosis MMX 2323 (ATCC 22019), QC, incubation 48 hr): 1 µg/mL
MIC ([1]; 48 h, C. parapsilosis MMX 7370, FLU^R, incubation 48 hr): 0.5 µg/mL
MIC ([1]; 48 h, C. parapsilosis MMX 7555, FLU^R, incubation 48 hr): 0.5 µg/mL
MIC ([1]; 48 h, C. tropicalis MMX 7247, FLU^R, incubation 48 hr): 4 µg/mL
MIC ([1]; 48 h, C. tropicalis MMX 7248, FLU^R, incubation 48 hr): 8 µg/mL
MIC ([1]; 48 h, C. tropicalis MMX 7360, FLU^R, incubation 48 hr): 2 µg/mL
MIC ([2]; strain BC 9): 0.5 µg/mL
MIC ([2]; strain PC 213): 1 µg/mL
MIC ([3]; strain AMT G193-13): > 16 µg/mL
MIC ([3]; strain MAC101): 1 µg/mL
reduction in viable biofilm cells [4]: 5 log
